Data reported in patent US20180200257A1, “METHODS FOR THE TREATMENT OF INFLAMMATORY DISORDERS” (Galapagos NV, priority 2015, published 2018).

Tested on: subjects with moderately to severely active RA who have an inadequate response to methotrexate (MTX)
Experiment: Study 1 (add-on to MTX) - DAS28(CRP) scores
Type: in vivo, human
Design: key to DAS28(CRP) mean CFB (LOCF): change from baseline in DAS28(CRP) score (joints, CRP, 0-100 VAS)
Description: Double-blind, placebo-controlled add on study in subjects with moderately to severely active RA who have an inadequate response to methotrexate (MTX) (oral or parenteral).
595 subjects randomized to one of 6 dose regimens of Compound 1 (dosed as [Compound 1:HCl:3H2O]) (3 dose levels administered either once or twice daily) or placebo on top of each subject's stable dose of MTX.
Compound 1 (dosed as [Compound 1:HCl:3H2O]) is dosed for twelve weeks once daily (q.d.) (50 mg, 100 mg or 200 mg) or twice daily (b.i.d.) (25 mg, 50 mg or 100 mg); or placebo.
At Week 12, the subjects on placebo who have not achieved 20% improvement in swollen joint count (SJC66) and tender joint count (TJC68) are re-randomized automatically to receive Compound 1 (dosed as a [Compound 1:HCl:3H2O]) either at 100 mg q.d. or 50 mg b.i.d. doses in a blinded fashion; subjects on 50 mg q.d. who have not achieved 20% improvement in SJC66 and TJC68 will be assigned to 100 mg q.d. and subjects on 25 mg b.i.d. that have not achieved a 20% improvement in SJC66 and TJC68 will be assigned to 50 mg b.i.d. Subjects who switch treatment at week 12 are handled as if they discontinued at week 12 for the purpose of statistical analysis, whereas subjects in the other groups will maintain their randomized treatment until Week 24.
The (DAS28(CRP)) is a system developed and validated by the European League Against Rheumatism (EULAR) to measure the progress and improvement of rheumatoid arthritis and has been extensively validated (Wells et al., 2008). The DAS28(CRP) scoring includes a 28 tender and swollen joint count, CRP measurement from blood analysis, and a general health assessment on a visual analog scale (Fransen et al., 2003).
DAS28(CRP) values range from 2.0 to 10.0, and more particularly reflect the following status: • Remission: DAS28(CRP) ≤2.6 • Low Disease activity: 2.6 <DAS28(CRP) ≤3.2 • Moderate Disease Activity: 3.2 <DAS28(CRP) ≤5.1 • High Disease Activity: DAS28(CRP) >5.1
In practice, the DAS28(CRP) measurement involves the evaluation 28 different joints including in the measurement (proximal interphalangeal joints (10 joints), metacarpophalangeal joints (10), wrists (2), elbows (2), shoulders (2), and knees (2)). When looking at these joints, both the number of joints with tenderness upon touching and swelling are counted.
Secondly, C-reactive protein level is measured.
Finally, the patient makes a subjective assessment of disease activity during the preceding 7 days on a scale between 0 and 100, where 0 is “no activity” and 100 is “highest activity possible”.
The DAS28(CRP) score is then calculated as follows:
Firstly, the patient is asked to make a vertical mark on a 100 mm Visual Analog Scale (VAS) corresponding to their general health or global disease activity on a touch screen to measure the VAS value, which is used in the formula below.
Secondly, a swollen and tender joint examination is then performed on the patient. The swollen and tender joints are recorded. From this examination are obtained the total amount of swollen joints (SJC) and the total amount of tender joints (TJC), which are used in the formula below.
Thirdly, C-reactive protein (CRP) levels are measured.
Finally, the values obtained above (VAS, TJC28, SJC28, and CRP) are computed into the following Formula to obtain the DAS28(CRP) score.
DAS28(CRP)=0.56*√{square root over (TJC28)}+0.28√{square root over (SJC28)}+[…] ln(CRP+1)+0.014*VAS
The improvement (decreases) in the DAS28(CRP) scores for each patient group at weeks 1, 2, 4, 8 and 12 is shown in Table LXXXVII and Table LXXXVIII below, together with the Hommel-corrected p-value for the pairwise comparisons of each group with placebo.
The number of subjects (N) provided in each groups corresponds to the number of subjects starting the study in each group, and the DAS28 (CRP) data reported below corresponds to the responding subjects continuing for the entire 24 weeks on their initial treatment course.

[1] = 2 × 25 mg b.i.d., 12 weeks results
[2] = 2 × 25 mg b.i.d., 24 weeks results
[3] = 2 × 50 mg b.i.d., 12 weeks results
[4] = 2 × 50 mg b.i.d., 24 weeks results
[5] = 2 × 100 mg b.i.d., 12 weeks results
[6] = 2 × 100 mg b.i.d., 24 weeks results

## O=C(Nc1nc2cccc(-c3ccc(CN4CCS(=O)(=O)CC4)cc3)n2n1)C1CC1 [Compound 1, cyclopropanecarboxylic acid {5-[4-(1,1-dioxo-thiomorpholin-4-ylmethyl)-phenyl]-[1,2,4]triazolo[1,5-a]pyridin-2-yl}-amide]
2 × 25 mg b.i.d., week 2, 12 weeks results
  DAS28(CRP) mean CFB (LOCF): −1.06
2 × 25 mg b.i.d., week 2, 24 weeks results
  DAS28(CRP) mean CFB (LOCF): −1.06
2 × 25 mg b.i.d., week 4, 12 weeks results
  DAS28(CRP) mean CFB (LOCF): −1.45
2 × 25 mg b.i.d., week 4, 24 weeks results
  DAS28(CRP) mean CFB (LOCF): −1.45
2 × 25 mg b.i.d., week 8, 12 weeks results
  DAS28(CRP) mean CFB (LOCF): −1.82
2 × 25 mg b.i.d., week 8, 24 weeks results
  DAS28(CRP) mean CFB (LOCF): −1.82
2 × 25 mg b.i.d., week 12, 12 weeks results
  DAS28(CRP) mean CFB (LOCF): −1.88
2 × 25 mg b.i.d., week 12, 24 weeks results
  DAS28(CRP) mean CFB (LOCF): −1.88
2 × 25 mg b.i.d., week 16, 24 weeks results
  DAS28(CRP) mean CFB (LOCF): −2.02
2 × 25 mg b.i.d., week 20, 24 weeks results
  DAS28(CRP) mean CFB (LOCF): −2.07
2 × 25 mg b.i.d., week 24, 24 weeks results
  DAS28(CRP) mean CFB (LOCF): −2.19
[1]
  % patients reaching low disease activity and/or remission at week 12 (LOCF): 28%
  % patients reaching low disease activity at week 12 (LOCF): 13%
  % patients reaching remission at week 12 (LOCF): 15%
[2]
  % patients reaching low disease activity and/or remission at week 24 (LOCF): 40%
  % patients reaching low disease activity at week 24 (LOCF): 16%
  % patients reaching remission at week 24 (LOCF): 23%
2 × 25 mg b.i.d., Week 1, 12 weeks results
  DAS28(CRP) mean CFB (LOCF): −0.68
2 × 25 mg b.i.d., Week 1, 24 weeks results
  DAS28(CRP) mean CFB (LOCF): −0.68
2 × 50 mg b.i.d., week 2, 12 weeks results
  DAS28(CRP) mean CFB (LOCF): −1.22
2 × 50 mg b.i.d., week 2, 24 weeks results
  DAS28(CRP) mean CFB (LOCF): −1.22
2 × 50 mg b.i.d., week 4, 12 weeks results
  DAS28(CRP) mean CFB (LOCF): −1.65
2 × 50 mg b.i.d., week 4, 24 weeks results
  DAS28(CRP) mean CFB (LOCF): −1.63
2 × 50 mg b.i.d., week 8, 12 weeks results
  DAS28(CRP) mean CFB (LOCF): −1.93
2 × 50 mg b.i.d., week 8, 24 weeks results
  DAS28(CRP) mean CFB (LOCF): −1.93
2 × 50 mg b.i.d., week 12, 12 weeks results
  DAS28(CRP) mean CFB (LOCF): −2.10
2 × 50 mg b.i.d., week 12, 24 weeks results
  DAS28(CRP) mean CFB (LOCF): −2.10
2 × 50 mg b.i.d., week 16, 24 weeks results
  DAS28(CRP) mean CFB (LOCF): −2.37
2 × 50 mg b.i.d., week 20, 24 weeks results
  DAS28(CRP) mean CFB (LOCF): −2.40
2 × 50 mg b.i.d., week 24, 24 weeks results
  DAS28(CRP) mean CFB (LOCF): −2.40
[3]
  % patients reaching low disease activity and/or remission at week 12 (LOCF): 29%
  % patients reaching low disease activity at week 12 (LOCF): 11%
  % patients reaching remission at week 12 (LOCF): 18%
[4]
  % patients reaching low disease activity and/or remission at week 24 (LOCF): 38%
  % patients reaching low disease activity at week 24 (LOCF): 14%
  % patients reaching remission at week 24 (LOCF): 24%
2 × 50 mg b.i.d., Week 1, 12 weeks results
  DAS28(CRP) mean CFB (LOCF): −0.84
2 × 50 mg b.i.d., Week 1, 24 weeks results
  DAS28(CRP) mean CFB (LOCF): −0.84
2 × 100 mg b.i.d., week 2, 12 weeks results
  DAS28(CRP) mean CFB (LOCF): −1.84
2 × 100 mg b.i.d., week 2, 24 weeks results
  DAS28(CRP) mean CFB (LOCF): −1.84
2 × 100 mg b.i.d., week 4, 12 weeks results
  DAS28(CRP) mean CFB (LOCF): −2.28
2 × 100 mg b.i.d., week 4, 24 weeks results
  DAS28(CRP) mean CFB (LOCF): −2.24
2 × 100 mg b.i.d., week 8, 12 weeks results
  DAS28(CRP) mean CFB (LOCF): −2.72
2 × 100 mg b.i.d., week 8, 24 weeks results
  DAS28(CRP) mean CFB (LOCF): −2.72
2 × 100 mg b.i.d., week 12, 12 weeks results
  DAS28(CRP) mean CFB (LOCF): −2.84
2 × 100 mg b.i.d., week 12, 24 weeks results
  DAS28(CRP) mean CFB (LOCF): −2.84
2 × 100 mg b.i.d., week 16, 24 weeks results
  DAS28(CRP) mean CFB (LOCF): −3.06
2 × 100 mg b.i.d., week 20, 24 weeks results
  DAS28(CRP) mean CFB (LOCF): −3.02
2 × 100 mg b.i.d., week 24, 24 weeks results
  DAS28(CRP) mean CFB (LOCF): −3.23
[5]
  % patients reaching low disease activity and/or remission at week 12 (LOCF): 50%
  % patients reaching low disease activity at week 12 (LOCF): 14%
  % patients reaching remission at week 12 (LOCF): 36%
[6]
  % patients reaching low disease activity and/or remission at week 24 (LOCF): 64%
  % patients reaching low disease activity at week 24 (LOCF): 24%
  % patients reaching remission at week 24 (LOCF): 40%
2 × 100 mg b.i.d., Week 1, 12 weeks results
  DAS28(CRP) mean CFB (LOCF): −1.33
2 × 100 mg b.i.d., Week 1, 24 weeks results
  DAS28(CRP) mean CFB (LOCF): −1.33
